Measured values as given in PubChem BioAssay AID248 (DTP/NCI, 2004).
“And” between values parts separate entries of the source, which are not always exact repeats. Identical values can stand only once. Inconclusive results and toxic doses are left out. Cut-off read from the data, not from the text of the source: active = T/C of 150% or more; inactive = T/C below 125%.

System: L1210 leukemia ip in BDF1 mice, survival T/C
Assay: NCI In Vivo Anticancer Drug Screen. Data for tumor model L1210 Leukemia (intraperitoneal) in B6D2F1 (BDF1) mice
Conditions: endpoint: mean survival time, higher = longer survival
In short: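 Antitumor effect is assessed in tumor-bearing animals. Survival in the compound arm is compared with a vehicle-dosed control arm and expressed as their quotient.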

[1] = dose: 100.0 mg/kg/injection, schedule: Q01DX001 (ip), vehicle: Klucel (hydroxypropylcellulose) (HPC)
[2] = dose: 200.0 mg/kg/injection, schedule: Q01DX001 (ip), vehicle: Klucel (hydroxypropylcellulose) (HPC)
[3] = dose: 400.0 mg/kg/injection, schedule: Q01DX001 (ip), vehicle: Klucel (hydroxypropylcellulose) (HPC)
[4] = dose: 100.0 mg/kg/injection, schedule: Q04DX003 (ip), vehicle: Klucel (hydroxypropylcellulose) (HPC)
[5] = dose: 200.0 mg/kg/injection, schedule: Q04DX003 (ip), vehicle: Klucel (hydroxypropylcellulose) (HPC)
[6] = dose: 400.0 mg/kg/injection, schedule: Q04DX003 (ip), vehicle: Klucel (hydroxypropylcellulose) (HPC)
[7] = dose: 100.0 mg/kg/injection, schedule: Q04DX003 (ip), vehicle: saline with Tween-80
[8] = dose: 200.0 mg/kg/injection, schedule: Q04DX003 (ip), vehicle: saline with Tween-80
[9] = dose: 12.5 mg/kg/injection, schedule: Q04DX002 (ip), vehicle: Klucel (hydroxypropylcellulose) (HPC)
[10] = dose: 25.0 mg/kg/injection, schedule: Q04DX002 (ip), vehicle: Klucel (hydroxypropylcellulose) (HPC)
[11] = dose: 100.0 mg/kg/injection, schedule: Q01DX001 (ip), vehicle: saline
[12] = dose: 200.0 mg/kg/injection, schedule: Q01DX001 (ip), vehicle: saline
[13] = dose: 400.0 mg/kg/injection, schedule: Q01DX001 (ip), vehicle: saline
[14] = dose: 6.25 mg/kg/injection, schedule: Q04DX002 (ip), vehicle: Klucel (hydroxypropylcellulose) (HPC)

Measured: T/C

ClC1=C(Cl)C(Cl)(Cl)C2C1C1C(Cl)=C(Cl)C(Cl)(Cl)C1C1C2C(Cl)=C(Cl)C1(Cl)Cl (stereo not drawn)
inactive: dose: 100.0 mg/kg/injection, schedule: Q01DX001 (ip), vehicle: gum acacia 95 % of control | dose: 100.0 mg/kg/injection, schedule: Q01DX009 (ip), vehicle: gum acacia 92 % of control | dose: 200.0 mg/kg/injection, schedule: Q01DX001 (ip), vehicle: gum acacia 88 % of control | dose: 200.0 mg/kg/injection, schedule: Q01DX009 (ip), vehicle: gum acacia 94 % of control | dose: 400.0 mg/kg/injection, schedule: Q01DX001 (ip), vehicle: gum acacia 92 % of control | dose: 400.0 mg/kg/injection, schedule: Q01DX009 (ip), vehicle: gum acacia 93 % of control

O=C(NCCc1ccc([N+](=O)[O-])cc1)c1ccc(S(=O)(=O)F)cc1
inactive: [1] 103 % of control | [2] 94 % of control | [3] 103 % of control

O=C(C[n+]1cccc(OC(=O)c2ccccc2)c1)c1ccc(-c2ccccc2)cc1
inactive: dose: 75.0 mg/kg/injection, schedule: Q04DX003 (ip), vehicle: Klucel (hydroxypropylcellulose) (HPC) 100 % of control | [1] 100 % of control | dose: 150.0 mg/kg/injection, schedule: Q04DX003 (ip), vehicle: Klucel (hydroxypropylcellulose) (HPC) 91 % of control | [2] 97 % of control | dose: 300.0 mg/kg/injection, schedule: Q04DX003 (ip), vehicle: Klucel (hydroxypropylcellulose) (HPC) 96 % of control | [3] 101 % of control

Cn1c2ccccc2c2cc[n+]3c(c21)CCCC3
inactive: dose: 5.0 mg/kg/injection, schedule: Q01DX001 (ip), vehicle: saline 108 % of control | dose: 10.0 mg/kg/injection, schedule: Q01DX001 (ip), vehicle: saline 108 % of control | dose: 20.0 mg/kg/injection, schedule: Q01DX001 (ip), vehicle: saline 115 % of control | dose: 40.0 mg/kg/injection, schedule: Q01DX001 (ip), vehicle: saline 115 % of control

OCCCNc1nc2c(Cl)cc(Cl)cc2c2ccccc12
inactive: dose: 100.0 mg/kg/injection, schedule: Q01DX009 (ip), vehicle: Klucel (hydroxypropylcellulose) (HPC) 104 % of control | [4] 107 % of control | dose: 200.0 mg/kg/injection, schedule: Q01DX009 (ip), vehicle: Klucel (hydroxypropylcellulose) (HPC) 94 % of control | [5] 108 % of control | [6] 95 % of control

O=C(O)c1cc2ccccc2cc1Sc1ccccc1
inactive: [7] 103 % of control | [8] 102 % of control

c1cc2cccc3c2c(c1)c1sc2c4cccc5cccc(c54)c2c31
inactive: dose: 100.0 mg/kg/injection, schedule: Q01DX009 (ip), vehicle: saline with Tween-80 100 % of control | [7] 101 % of control | dose: 200.0 mg/kg/injection, schedule: Q01DX009 (ip), vehicle: saline with Tween-80 92 % of control | [8] 90 % of control | dose: 400.0 mg/kg/injection, schedule: Q01DX009 (ip), vehicle: saline with Tween-80 89 % of control | dose: 400.0 mg/kg/injection, schedule: Q04DX003 (ip), vehicle: saline with Tween-80 94 % of control

Cc1ccc2nc3c(nc2c1)-c1cccc2cccc-3c12
inactive: dose: 25.0 mg/kg/injection, schedule: Q01DX009 (ip), vehicle: saline with Tween-80 94 % of control | dose: 50.0 mg/kg/injection, schedule: Q01DX009 (ip), vehicle: saline with Tween-80 90 % of control | [7] 102 % of control | [8] 93 % of control

COC(=O)c1cc(I)cc(I)c1N
inactive: dose: 100.0 mg/kg/injection, schedule: Q01DX001 (ip), vehicle: saline with Tween-80 98 % of control | dose: 200.0 mg/kg/injection, schedule: Q01DX001 (ip), vehicle: saline with Tween-80 98 % of control | dose: 400.0 mg/kg/injection, schedule: Q01DX001 (ip), vehicle: saline with Tween-80 100 % of control

Cc1ccc(CNC2=C(Cl)C(=O)c3ccccc3C2=O)cc1C
inactive: [9] 92 % of control | [10] 87 % of control

COc1cc([N+](=O)[O-])c(C)cc1Br
inactive: [11] 105 % of control | dose: 100.0 mg/kg/injection, schedule: Q04DX003 (ip), vehicle: acetone 98 % of control | [12] 107 % of control | dose: 200.0 mg/kg/injection, schedule: Q04DX003 (ip), vehicle: acetone 100 % of control | [13] 107 % of control | dose: 400.0 mg/kg/injection, schedule: Q04DX003 (ip), vehicle: acetone 95 % of control

CC1(C)CN1C1=C(NC(=O)CCl)C(=O)c2ccccc2C1=O
inactive: [4] 87 % of control | [5] 94 % of control | [6] 91 % of control

O=C1C=C(C(c2ccccc2)c2ccccc2)C(=O)C=C1NS(=O)(=O)c1ccccc1
inactive: dose: 25.0 mg/kg/injection, schedule: Q01DX001 (ip), vehicle: Klucel (hydroxypropylcellulose) (HPC) 106 % of control | dose: 50.0 mg/kg/injection, schedule: Q01DX001 (ip), vehicle: Klucel (hydroxypropylcellulose) (HPC) 97 % of control | [1] 95 % of control

O=C(c1ccccc1)C(Nc1ccc(Br)cc1)Nc1ccc(Br)cc1
inactive: dose: 100.0 mg/kg/injection, schedule: Q01DX001 (ip), vehicle: carboxymethylcellulose (CMC) 96 % of control | dose: 200.0 mg/kg/injection, schedule: Q01DX001 (ip), vehicle: carboxymethylcellulose (CMC) 102 % of control | dose: 400.0 mg/kg/injection, schedule: Q01DX001 (ip), vehicle: carboxymethylcellulose (CMC) 96 % of control

O=C(O)C1CCCS1(=O)=O (stereo not drawn)
inactive: dose: 100.0 mg/kg/injection, schedule: Q04DX003 (ip), vehicle: saline 96 % of control | dose: 200.0 mg/kg/injection, schedule: Q04DX003 (ip), vehicle: saline 94 % of control | dose: 400.0 mg/kg/injection, schedule: Q04DX003 (ip), vehicle: saline 88 % of control

C1=CC([P+](Cc2ccccc2)(c2ccccc2)c2ccccc2)CC1 (stereo not drawn)
inactive: dose: 6.25 mg/kg/injection, schedule: Q04DX003 (ip), vehicle: saline 95 % of control | dose: 12.5 mg/kg/injection, schedule: Q04DX003 (ip), vehicle: saline 90 % of control | dose: 25.0 mg/kg/injection, schedule: Q04DX003 (ip), vehicle: saline 96 % of control | dose: 50.0 mg/kg/injection, schedule: Q04DX003 (ip), vehicle: saline 93 % of control and 96 % of control

CC(C)OC(=O)c1cccc2c1-c1ccccc1C2=O
inactive: [11] 92 % of control | [12] 92 % of control | [13] 95 % of control

OCC1(c2ccccc2)OC1(c1ccccc1)c1ccccc1 (stereo not drawn)
inactive: [14] 86 % of control | [9] 101 % of control | [10] 99 % of control and 101 % of control

C=CCc1cc(OC)c2c(c1OC)C(=O)c1cccc(OC)c1C2=O
inactive: [7] 97 % of control | [8] 105 % of control

CCCC(CCC)(C(=O)OCCOCCCl)c1cccc2ccccc12
inactive: dose: 100.0 mg/kg/injection, schedule: Q04DX002 (ip), vehicle: saline with Tween-80 89 % of control | dose: 200.0 mg/kg/injection, schedule: Q04DX002 (ip), vehicle: saline with Tween-80 99 % of control | dose: 400.0 mg/kg/injection, schedule: Q04DX002 (ip), vehicle: saline with Tween-80 95 % of control

CC(C)(C)c1ccc(SCCN=C(N)CSS(=O)(=O)O)cc1
inactive: dose: 3.13 mg/kg/injection, schedule: Q01DX009 (ip), vehicle: Klucel (hydroxypropylcellulose) (HPC) 91 % of control | dose: 3.13 mg/kg/injection, schedule: Q04DX002 (ip), vehicle: Klucel (hydroxypropylcellulose) (HPC) 98 % of control | dose: 6.25 mg/kg/injection, schedule: Q01DX009 (ip), vehicle: Klucel (hydroxypropylcellulose) (HPC) 102 % of control | [14] 107 % of control | [9] 98 % of control and 106 % of control

NC(N)=N/N=C(\C(=N\N=C(N)N)c1ccccc1)c1ccccc1
inactive: dose: 60.0 mg/kg/injection, schedule: Q01DX Z (oral), vehicle: methylcellulose (MC) 98 % of control | dose: 120.0 mg/kg/injection, schedule: Q01DX Z (oral), vehicle: methylcellulose (MC) 96 % of control | dose: 240.0 mg/kg/injection, schedule: Q01DX Z (oral), vehicle: methylcellulose (MC) 94 % of control | dose: 480.0 mg/kg/injection, schedule: Q01DX Z (oral), vehicle: methylcellulose (MC) 91 % of control
